From US20240252457A1, “Treatment or Prevention of Ischaemia Reperfusion Injury” (Cambridge Enterprise Limited, priority 2021, published 2024)
“Also recorded” adds a separate entry of the source.

Legend:
[1] = cited from earlier work
C2C12 cells = assay: Malonate / 3A3OPA uptake in C2C12 cells at different pH (LC-MS/MS); format: cell-based, mouse; details: for intracellular uptake, effect of lowered pH: 15 min, pH 6 vs 7.4 (and 8)
Experimental: C2C12 cells were incubated with malonate at pH 8, 7.4 or 6 and the levels within cells measured by LC-MS/MS (mean±/−S.E.M., n=4).
C2C12 cells were treated with either malonate or 3-amino-3-oxypropanoic acid at pH 7.4 or 6 and their intracellular levels measured by LC-MS/MS (mean±/−S.E.M., n=6).

[2] = cited from earlier work; remark: listed apart in the source
MCAO model = assay: Transient middle cerebral artery occlusion (MCAO) stroke model; format: in vivo, mice; details: i.v. for 20 min starting just prior to reperfusion; 45 min ischaemia, 2 h reperfusion
Excerpt: Male C57B16J mice, 6-8 weeks old, were anesthetized with 3% isoflurane and anaesthesia was maintained on 1.5-2% isoflurane. A Doppler flowmetry probe (Perimed, Sweden) was attached to the skull to continuously monitor the cerebral blood flow. Left common carotid artery (CCA) and left external carotid artery were exposed and permanently ligated. Left internal common carotid artery was clamped temporarily. Next, an incision was made on CCA and a filament with a silicon tip (0.22 mm in diameter, 2-3 mm in length, Doccol, USA) was inserted and guided forward into internal carotid artery until it reached middle cerebral artery (MCA). The occlusion of MCA was confirmed by seeing at least 70% drop in cerebral blood flow. […]
At the end of reperfusion, mice were sacrificed by cervical dislocation; brain was collected and sliced at 2 mm thicknesses and stained with 2% triphenyltetrazolium chloride in saline at 37 C for 10-15 min. […] The healthy tissue area (red-stained) in both hemispheres was measured using ImageJ. The infarct volume % was calculated by first calculating the volume of healthy tissue in each hemisphere (Σ area of each slice×thickness of slice), then by the formula: ((volume of healthy tissue in uninjured hemisphere−volume of healthy tissue in injured hemisphere)÷volume of healthy tissue in uninjured hemisphere)×100.

MCT1 = target: T1, MCT1 (Mus musculus, UniProt P53986); assay: Malonate levels in Langendorff hearts perfused at pH 6 with DSM ± lactate or MCT1 inhibitor; parameters: species or system murine; details: pH 6, 5 min, 5 mM DSM; lactate 50 mM, AR-C141990 10 μM
T1 construct: from tissue; host or cells: isolated Langendorff-perfused murine heart
T1 sequence (P53986 1-493): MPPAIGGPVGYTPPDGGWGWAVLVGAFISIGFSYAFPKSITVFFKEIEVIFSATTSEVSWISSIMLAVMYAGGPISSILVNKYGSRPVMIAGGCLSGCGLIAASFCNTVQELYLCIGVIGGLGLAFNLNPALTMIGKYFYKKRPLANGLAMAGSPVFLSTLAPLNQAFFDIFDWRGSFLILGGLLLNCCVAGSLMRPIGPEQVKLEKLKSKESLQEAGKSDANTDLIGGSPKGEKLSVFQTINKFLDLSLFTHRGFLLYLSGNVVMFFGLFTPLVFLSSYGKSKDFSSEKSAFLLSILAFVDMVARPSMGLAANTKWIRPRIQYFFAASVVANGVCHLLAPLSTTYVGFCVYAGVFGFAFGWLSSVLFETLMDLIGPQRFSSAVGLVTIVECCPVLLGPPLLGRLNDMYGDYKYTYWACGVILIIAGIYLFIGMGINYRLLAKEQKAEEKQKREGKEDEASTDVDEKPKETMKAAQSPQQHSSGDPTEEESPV
T1 sequence (P18572 140-389 partner limits assumed): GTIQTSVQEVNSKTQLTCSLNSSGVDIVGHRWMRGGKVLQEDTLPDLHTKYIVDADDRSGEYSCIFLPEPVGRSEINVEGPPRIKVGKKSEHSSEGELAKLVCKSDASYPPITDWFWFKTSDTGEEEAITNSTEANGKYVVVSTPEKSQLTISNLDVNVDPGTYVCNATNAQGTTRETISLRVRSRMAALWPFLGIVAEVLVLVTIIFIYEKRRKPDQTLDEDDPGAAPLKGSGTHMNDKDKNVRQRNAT
Excerpt: Malonate uptake into the Langendorff perfused heart was blocked by the MCT1 inhibitor AR-C141990, in the perfusion medium, and by excess lactate.

[3] = test system: C2C12 mouse myoblast cells; assay: Malonate uptake in vitro in C2C12 cells (dose and time course); format: cell-based; details: for malonate uptake into cells (words): 0.25, 1 or 5 mM, 0 to 240 min; for intracellular malonate concentration: 5 min, cell volume 260 mg protein/ml
Experimental: We first explored whether malonate could be taken up by cells in culture. C2C12 mouse myoblast cells were plated at 300,000 cells/well and adhered overnight. […] Cells were extracted for mass spectrometry with 500 μl extraction buffer (50% methanol, 30% acetonitrile and 20% water) with 1 nmol ^13C-malonate internal standard centrifuged to remove insoluble debris.

murine LAD MI model = assay: Infarct size in murine LAD MI model (TTC staining); format: in vivo
Experimental: Mice were subjected to left anterior descending coronary artery ligation heart attack model (30 min ischaemia, 2 hr reperfusion) and malonate infused either before the onset of ischaemia or during initial reperfusion. Infarct size was determined by staining the heart with triphenyltetrazolium chloride (mean±/−S.E.M., n=5-8).
Thus, malonate was confirmed to be cardioprotective when administered at the point of reperfusion after ischaemia.
Cyclosporin A is a known inhibitor of the mitochondrial permeability transition pore (PTP).

H9c2 myoblasts = assay: Intracellular malonate and succinate in H9c2 myoblasts at different pH (LC-MS/MS); format: cell-based; details: H9c2, DSM 1 or 5 mM, 15 min
[4] = test system: murine Langendorff perfused heart; assay: Malonate uptake in Langendorff-perfused hearts (pH- and ischaemia-dependence, LC-MS/MS)
Experimental: Malonate (5 mM) was infused into Langendorff perfused mouse hearts at either pH 7.4 or 6. The heart flushed to remove vessel malonate and malonate levels measured by LC-MS/MS (mean±/−S.E.M., n=4).
Langendorff mouse hearts were reperfused with malonate (5 mM) after either 0, 5, 10, or 20 min ischaemia). The heart flushed to remove vessel malonate and malonate levels measured by LC-MS/MS (mean±/−S.E.M., n=4-5).

[5] = Malonate uptake in vivo, tissue levels after tail vein bolus; parameters: species or system mouse; details: 160 mg/kg tail vein bolus, 5 min
Experimental: For tissue analysis, tissues were weighed and extracted in 25 μl/mg extraction buffer containing internal standard and homogenised in a Precellys 24 homogeniser. Homogenates were centrifuged to remove insoluble debris. Extracts were analysed by LC-MS/MS and the levels of malonate assessed by interpolation of a malonate standard curve.

pKa and ionisation state = format: physicochemical; details: pH 6.4
Excerpt: In 3A3OPA, one carboxylic acid has been replaced with a neutral amido group leaving a single carboxylic acid of pKa˜4.75. Thus, at pH 7.4 3A3OPA resembles the monocarboxylate form of malonate.

Langendorff heart = assay: Lactate levels in the Langendorff heart after 20 min ischemia and 1 min reperfusion; details: 5 mM DSM, 20 min ischemia
Excerpt: Compared to reperfusion alone, lactate levels decreased in the malonate-treated hearts.

For `NC(=O)CC(=O)O` [3A3OPA, 3-amino-3-oxypropanoic acid], the “pKa of single carboxylic acid” value [1] is listed as ~4.75, the “uptake into cells at pH 7.4 compared with malonate” value (C2C12 cells; 5 mM, pH 7.4) is listed as “more 3A3OPA being taken up into cells at pH 7.4 than malonate” and the “intracellular uptake, effect of lowered pH” value (C2C12 cells) is listed as “changed negligibly”.

For `COC(=O)CC(=O)OC` [DMM, dimethyl malonate], the “protection against IR injury” value ([2]; administered prior to and throughout ischaemia (WO 2016/001686)) is given as “protective” and the “necrotic brain infarct volume” value (MCAO model) is given as “not to be protective; also recorded: no significant difference”.

With `CC(O)C(=O)O` (stereo not shown) [lactate] the “effect on malonate uptake into the Langendorff perfused heart” value (MCT1) was “blocked”.

In the case of `CC(C)Cn1c(=O)n(C)c(=O)c2c(C(=O)N3CC[C@@H](O)C3)c(Cc3ccnc4ccccc34)sc21` [AR-C141990], the “effect on malonate uptake into the Langendorff perfused heart” value (MCT1) is reported as “blocked”.

With `O=C([O-])CC(=O)[O-].[Na+].[Na+]` [DSM, disodium malonate] the intracellular malonate levels ([3]; 5 mM DSM, after 5 min) was ~2 nmol/mg protein, the “malonate uptake into cells (words)” value ([3]; listed as Malonate) was “both dose and time-dependent” and the “malonate uptake into cells (words)” value ([3]; listed as disodium malonate) was “rapid malonate uptake”. The intracellular malonate concentration ([3]; 250 μM malonate) was “about 50 μM”, the intracellular malonate concentration ([3]; 5 mM malonate) was ~500 µM and the intracellular malonate levels ([3]; incubated with 250 μM disodium malonate) was 0.2-0.4 nmol/mg protein. For the same compound, the “infarct size (cardioprotection)” value (murine LAD MI model; 160 mg/kg infusion at reperfusion) was “cardioprotective”, the “infarct size, cardioprotection in combination with cyclosporin A” value (murine LAD MI model; DSM 160 mg/kg with cyclosporin A 10 mg/kg at reperfusion) was “additive to cyclosporin A alone” and the “protection against myocardial IR injury” value ([2]; small animal ex vivo and large animal models) was “protective”. For the same compound, the “levels of malonate in the cell at pH 6 vs pH 7.4 or 8” value (H9c2 myoblasts) was “significantly higher”, the “succinate levels (malonate-dependent SDH inhibition) at low pH” value (H9c2 myoblasts) was “greater succinate accumulation” and the “malonate uptake in heart after ischaemia” value ([4]; 0, 5, 10 or 20 min ischaemia, reperfused with 5 mM DSM pH 7.4) was “ischemic time-dependent uptake”. The “malonate uptake in heart, infused at low pH vs neutral pH” value ([4]; 5 mM DSM, pH 6 vs pH 7.4) was “greatly enhanced”, the “tissue levels of malonate, brain” value [5] was “uptake in the brain” and the “tissue levels of malonate, heart” value [5] was “significant amounts”. For the same compound, the “tissue levels of malonate, kidney” value [5] was “particularly high”, the “tissue levels of malonate, liver” value [5] was “significant amounts” and the “intracellular uptake, effect of lowered pH” value (C2C12 cells) was “greatly enhanced”. The “necrotic brain infarct volume” value (MCAO model) was “decreased”, the “fraction in monocarboxylate form” value (pKa and ionisation state) was “approximately 16%” and the “lactate levels compared to reperfusion alone” value (Langendorff heart) was “decreased”.
